According to the supplement of paper PMC10307832:

Each cell line was assayed with Cn1cnc2c(F)c(Nc3ccc(Br)cc3Cl)c(C(=O)NOCCO)cc21 [Selumetinib] + CS(=O)(=O)CCNCc1ccc(-c2ccc3ncnc(Nc4ccc(OCc5cccc(F)c5)c(Cl)c4)c3c2)o1 [Lapatinib] (partner 2 µM) (assay: relative viability (nuclei count vs DMSO), 5 days (fraction); higher = more cells survive). Conditions: first compound 0.02 µM.
Method in brief: (§1)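 Five library-drug doses in √10 steps were combined with a fixed anchor-drug dose, or a single drug was given alone, by pin tool to lung cancer cell lines in 1536-well plates the day after seeding. Nuclei were stained and counted after 5 days. Relative viability is the nuclei count in treated wells over that in vehicle wells, taken as the median of duplicate plates.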

Cell Line	relative viability
NCI-H1993	0.931
HOP-62	1.08
NCI-H1355	0.959
NCI-H2405	1.05
NCI-H1437	0.588
NCI-H661	0.449
CAL-12T	0.542
NCI-H1703	1.19
H3255	0.238
NCI-H2347	0.795
NCI-H1975	0.856
NCI-H1563	0.891
NCI-H1650	0.704
NCI-H1915	1.06
NCI-H2087	0.86
HCC-366	1.06
NCI-H1793	0.827
RERF-LC-KJ	0.768
EKVX	0.171
NCI-H1651	0.691
NCI-H1944	0.812
NCI-H2009	0.786
SW 1573	1.19
ABC-1	1.22
NCI-H358	0.38
NCI-H727	0.562
SK-LU-1	0.964

Same assay, conditions: first compound 0.06325 µM

Cell Line	relative viability
NCI-H1993	0.762
HOP-62	0.86
NCI-H1355	0.785
NCI-H2405	0.852
NCI-H1437	0.528
NCI-H661	0.466
CAL-12T	0.425
NCI-H1703	1.17
H3255	0.267
NCI-H2347	0.706
NCI-H1975	0.65
NCI-H1563	0.851
NCI-H1650	0.639
NCI-H1915	0.93
NCI-H2087	0.87
HCC-366	0.914
NCI-H1793	0.581
RERF-LC-KJ	0.885
EKVX	0.263
NCI-H1651	0.768
NCI-H1944	0.666
NCI-H2009	0.567
SW 1573	1.01
ABC-1	1.27
NCI-H358	0.334
NCI-H727	0.443
SK-LU-1	0.773

Same assay, conditions: first compound 0.2 µM

Cell Line	relative viability
NCI-H1993	0.887
HOP-62	0.732
NCI-H1355	0.693
NCI-H2405	0.644
NCI-H1437	0.351
NCI-H661	0.427
CAL-12T	0.523
NCI-H1703	1.17
H3255	0.218
NCI-H2347	0.574
NCI-H1975	0.794
NCI-H1563	0.944
NCI-H1650	0.704
NCI-H1915	0.831
NCI-H2087	0.56
HCC-366	0.872
NCI-H1793	0.503
RERF-LC-KJ	0.828
EKVX	0.241
NCI-H1651	0.763
NCI-H1944	0.63
NCI-H2009	0.596
SW 1573	1.04
ABC-1	0.967
NCI-H358	0.391
NCI-H727	0.349
SK-LU-1	0.751

Same assay, conditions: first compound 0.6325 µM

Cell Line	relative viability
NCI-H1993	0.706
HOP-62	0.636
NCI-H1355	0.558
NCI-H2405	0.591
NCI-H1437	0.252
NCI-H661	0.351
CAL-12T	0.521
NCI-H1703	0.994
H3255	0.243
NCI-H2347	0.436
NCI-H1975	0.674
NCI-H1563	0.911
NCI-H1650	0.721
NCI-H1915	0.682
NCI-H2087	0.441
HCC-366	0.612
NCI-H1793	0.504
RERF-LC-KJ	0.811
EKVX	0.168
NCI-H1651	0.752
NCI-H1944	0.634
NCI-H2009	0.375
SW 1573	0.788
ABC-1	1.03
NCI-H358	0.314
NCI-H727	0.325
SK-LU-1	0.479

Each cell line was assayed with CC1(C)CCC(CN2CCN(c3ccc(C(=O)NS(=O)(=O)c4ccc(NCC5CCOCC5)c([N+](=O)[O-])c4)c(Oc4cnc5[nH]ccc5c4)c3)CC2)=C(c2ccc(Cl)cc2)C1 [Venetoclax] + CS(=O)(=O)N1CCN(Cc2cc3nc(-c4cccc5[nH]ncc45)nc(N4CCOCC4)c3s2)CC1 [Pictilisib] (partner 1 µM) in the same assay as above. Conditions: first compound 0.01 µM.
Method in brief: as §1

Cell Line	relative viability
NCI-H1993	1.03
HOP-62	0.725
NCI-H1355	0.493
NCI-H2405	0.505
NCI-H1437	0.538
NCI-H661	0.466
CAL-12T	0.36
NCI-H1703	0.22
H3255	0.47
NCI-H2347	0.606
NCI-H1975	0.351
NCI-H1563	0.881
NCI-H1650	0.531
NCI-H1915	0.953
NCI-H2087	1.08
HCC-366	0.193
NCI-H1793	0.371
RERF-LC-KJ	0.523
EKVX	0.451
NCI-H1651	0.6
NCI-H1944	0.369
NCI-H2009	0.814
SW 1573	0.471
ABC-1	0.786
NCI-H358	0.323
NCI-H727	0.354
SK-LU-1	0.558

Same assay, conditions: first compound 0.03162 µM

Cell Line	relative viability
NCI-H1993	0.802
HOP-62	1.04
NCI-H1355	0.547
NCI-H2405	0.472
NCI-H1437	0.443
NCI-H661	0.446
CAL-12T	0.609
NCI-H1703	0.266
H3255	0.527
NCI-H2347	0.606
NCI-H1975	0.33
NCI-H1563	0.653
NCI-H1650	0.713
NCI-H1915	0.911
NCI-H2087	1.08
HCC-366	0.154
NCI-H1793	0.445
RERF-LC-KJ	0.607
EKVX	0.432
NCI-H1651	0.626
NCI-H1944	0.37
NCI-H2009	0.955
SW 1573	0.615
ABC-1	0.778
NCI-H358	0.364
NCI-H727	0.419
SK-LU-1	0.634

Same assay, conditions: first compound 0.1 µM

Cell Line	relative viability
NCI-H1993	0.8
HOP-62	0.493
NCI-H1355	0.377
NCI-H1437	0.435
NCI-H661	0.455
CAL-12T	0.489
NCI-H1703	0.206
H3255	0.457
NCI-H2347	0.668
NCI-H1975	0.258
NCI-H1563	0.648
NCI-H1915	0.894
NCI-H2087	0.832
HCC-366	0.0731
NCI-H1793	0.328
RERF-LC-KJ	0.512
EKVX	0.423
NCI-H1651	0.481
NCI-H1944	0.355
NCI-H2009	0.778
SW 1573	0.435
ABC-1	0.759
NCI-H358	0.3
NCI-H727	0.404
SK-LU-1	0.524

Same assay, conditions: first compound 0.3162 µM

Cell Line	relative viability
NCI-H1993	0.685
HOP-62	0.904
NCI-H1355	0.467
NCI-H2405	0.394
NCI-H1437	0.386
NCI-H661	0.415
CAL-12T	0.419
NCI-H1703	0.229
H3255	0.486
NCI-H2347	0.746
NCI-H1975	0.284
NCI-H1563	0.642
NCI-H1650	0.723
NCI-H1915	0.979
NCI-H2087	0.921
HCC-366	0.184
NCI-H1793	0.241
RERF-LC-KJ	0.513
EKVX	0.469
NCI-H1651	0.482
NCI-H1944	0.383
NCI-H2009	0.838
SW 1573	0.459
ABC-1	0.71
NCI-H358	0.327
NCI-H727	0.37
SK-LU-1	0.592

Same assay, conditions: first compound 1 µM

Cell Line	relative viability
NCI-H1993	0.78
HOP-62	0.634
NCI-H1355	0.404
NCI-H2405	0.402
NCI-H1437	0.404
NCI-H661	0.347
CAL-12T	0.396
NCI-H1703	0.236
H3255	0.482
NCI-H2347	0.123
NCI-H1975	0.282
NCI-H1563	0.698
NCI-H1650	0.622
NCI-H1915	0.92
NCI-H2087	0.789
HCC-366	0.138
NCI-H1793	0.321
RERF-LC-KJ	0.571
EKVX	0.395
NCI-H1651	0.533
NCI-H1944	0.36
NCI-H2009	0.774
SW 1573	0.487
ABC-1	0.699
NCI-H358	0.363
NCI-H727	0.398
SK-LU-1	0.511

These cell lines were tested with Cn1cnc2c(F)c(Nc3ccc(Br)cc3Cl)c(C(=O)NOCCO)cc21 [Selumetinib] (assay: relative viability (nuclei count vs DMSO), 5 days (fraction); higher = more cells survive). Conditions: 0.02 µM.
Method in brief: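 Cells of lung cancer lines were placed in 1536-well plates and kept overnight at 37 °C. Pinning then delivered five library-drug doses (not always all listed), spaced by √10, onto plates anchored with vehicle, and the cells were left 5 days without changing medium. One step fixed, permeabilised and stained them with Hoechst, and MetaXpress counted nuclei in 4× images. Viability, as a median over plates, is treated-well nuclei divided by vehicle-well nuclei, with acceptance only at control CV below 25% and at least one doubling.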

Cell Line	relative viability
NCI-H1993	0.794
